In the supplement of paper PMC10307832:

How the values were obtained:
Test in all cases: relative viability (nuclei count vs DMSO), 5 days (fraction); higher = more cells survive
[1] = compound: OCc1c[nH]c2ccccc12 [Indole-3-carbinol] + CC(=O)Nc1cccc(-n2c(=O)n(C3CC3)c(=O)c3c(Nc4ccc(I)cc4F)n(C)c(=O)c(C)c32)c1 [Trametinib] (partner 0.02 µM)
How it was run: (§1)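 Values are medians from duplicate plates. Each reflects relative viability, defined as the nuclei count of treated wells over that of vehicle wells. Lung cancer cell lines in 1536-well plates were pin-tool dosed one day after seeding with one drug alone or with a fixed anchor-drug dose plus five library-drug doses (not always all listed) in √10 steps, then fixed, stained and imaged at 4× after 5 days.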

[2] = compound: OCc1c[nH]c2ccccc12 [Indole-3-carbinol] + CC1(C)CCC(c2ccc(Cl)cc2)=C(CN2CCN(c3ccc(C(=O)NS(=O)(=O)c4ccc(N[C@H](CCN5CCOCC5)CSc5ccccc5)c(S(=O)(=O)C(F)(F)F)c4)cc3)CC2)C1 [Navitoclax] (partner 0.5 µM)
How it was run: as §1

[3] = compound: OCc1c[nH]c2ccccc12 [Indole-3-carbinol] + COc1cccc2cc(-c3nc([C@H]4CC[C@H](C(=O)O)CC4)n4ncnc(N)c34)[nH]c12 [OSI-027] (partner 0.5 µM)
How it was run: as §1

[4] = compound: OCc1c[nH]c2ccccc12 [Indole-3-carbinol] + Cc1cc(Nc2cc(N3CCN(C)CC3)nc(Sc3ccc(NC(=O)C4CC4)cc3)n2)n[nH]1 [Tozasertib] (partner 0.1 µM)
How it was run: as §1

[5] = compound: OCc1c[nH]c2ccccc12 [Indole-3-carbinol] + O=C(c1cc(Cc2n[nH]c(=O)c3ccccc23)ccc1F)N1CCN(C(=O)C2CC2)CC1 [Olaparib] (partner 8 µM)
How it was run: as §1

Row | Cell Line | relative viability ([1]; first compound 0.253 µM) | relative viability ([1]; first compound 0.8 µM) | relative viability ([1]; first compound 2.53 µM) | relative viability ([1]; first compound 8 µM) | relative viability ([2]; first compound 0.253 µM) | relative viability ([2]; first compound 0.8 µM) | relative viability ([2]; first compound 2.53 µM) | relative viability ([2]; first compound 8 µM) | relative viability ([3]; first compound 0.253 µM) | relative viability ([3]; first compound 0.8 µM) | relative viability ([3]; first compound 2.53 µM) | relative viability ([3]; first compound 8 µM) | relative viability ([4]; first compound 0.253 µM) | relative viability ([4]; first compound 0.8 µM) | relative viability ([4]; first compound 2.53 µM) | relative viability ([4]; first compound 8 µM) | relative viability ([5]; first compound 0.253 µM) | relative viability ([5]; first compound 0.8 µM) | relative viability ([5]; first compound 2.53 µM) | relative viability ([5]; first compound 8 µM)
1 | NCI-H1755 | 0.784 | 0.737 | 0.815 | 0.733 | 1.02 | 1.01 | 0.975 | 0.984 | 0.761 | 0.664 | 0.822 | 0.699 | 0.642 | 0.592 | 0.647 | 0.535 | 0.894 | 0.926 | 0.929 | 0.872
2 | NCI-H1793 | 0.403 | 0.442 | 0.455 | 0.481 | 0.423 | 0.402 | 0.508 | 0.393 | 0.233 | 0.251 | 0.268 | 0.31 | 0.332 | 0.389 | 0.339 | 0.395 | 0.947 | 0.917 | 0.505 | 0.764
3 | NCI-H1915 | 0.282 | 0.294 | 0.342 | 0.296 | 0.753 | 0.787 | 0.768 | 0.762 | 0.571 | 0.611 | 0.623 | 0.563 | 0.409 | 0.459 | 0.449 | 0.464 | 0.253 | 0.243 | 0.282 | 0.25
4 | NCI-H1944 | 0.425 | 0.378 | 0.393 | 0.417 | 1.13 | 1.01 | 1.11 | 1.03 | 0.375 | 0.378 | 0.369 | 0.363 | 0.245 | 0.241 | 0.264 | 0.246 | 0.38 | 0.348 | 0.388 | 0.368
5 | NCI-H1975 | 0.559 | 0.493 | 0.337 | 0.641 | 1.14 | 1.27 | 1.11 | 1.08 | 0.589 | 0.808 | 0.696 | 0.743 | 0.651 | 1.03 | 0.797 | 0.88 | 0.801 | 0.847 | 0.822 | 0.77
6 | NCI-H1993 | 0.483 | 0.519 | 0.513 | 0.554 | 0.958 | 1.1 | 0.89 | 1.01 | 0.513 | 0.516 | 0.63 | 0.468 | 0.614 | 0.629 | 0.579 | 0.562 | 1.01 | 1.12 | 0.98 | 0.927
7 | NCI-H2009 | 0.285 | 0.294 | 0.278 | 0.281 | 1.16 | 1.2 | 1.18 | 1.02 | 0.572 | 0.677 | 0.649 | 0.604 | 0.691 | 0.862 | 0.737 | 0.739 | 0.674 | 0.768 | 0.7 | 0.649
8 | NCI-H2023 | 0.525 | 0.532 | 0.555 | 0.473 | 1.01 | 1.05 | 0.977 | 0.954 | 0.406 | 0.405 | 0.438 | 0.398 | 0.256 | 0.355 | 0.366 | 0.362 | 0.471 | 0.564 | 0.518 | 0.422
